Assays:
SARS-CoV-2 [1] = assay: Antiviral activity against SARS-CoV-2 infected in Vero E6 cells assessed as inhibition of viral replication at 50 uM measured for 72 hrs relative to control; assay type: functional; conditions: Severe acute respiratory syndrome coronavirus 2, Vero C1008
[2] = Cytotoxicity against African green monkey Vero E6 cells assessed as cell viability at 50 uM incubated for 48 hrs by CellTiter96 assay relative to control; assay type: toxicity, cell-based, Vero C1008; conditions: chlorocebus sabaeus, read-out: Activity
[3] = target: Replicase polyprotein 1ab (Severe acute respiratory syndrome coronavirus 2) (UniProt P0DTD1); assay: Inhibition of SARS-CoV-2 MPro using E(EDAS)TSAVLQSGFRK(DABCYL) as substrate at 100 uM by fluorescence based analysis relative to control
[4] = target: Replicase polyprotein 1ab (Severe acute respiratory syndrome coronavirus 2, UniProt P0DTD1); assay: Inhibition of SARS-CoV-2 MPro using E(EDAS)TSAVLQSGFRK(DABCYL) as substrate by fluorescence based analysis
SARS-CoV-2 [5] = assay: Antiviral activity against SARS-CoV-2 infected in Vero E6 cells assessed as inhibition of viral replication at 10 uM measured for 72 hrs relative to control; assay type: functional; conditions: Severe acute respiratory syndrome coronavirus 2, Vero C1008
SARS-CoV-2 [6] = assay: Antiviral activity against SARS-CoV-2 infected in Vero E6 cells assessed as inhibition of viral replication measured for 72 hrs; assay type: functional, organism-based; conditions: Severe acute respiratory syndrome coronavirus 2, Vero C1008, 72 h
[7] = Cytotoxicity against African green monkey Vero E6 cells assessed as cell viability incubated for 48 hrs by CellTiter96 assay; assay type: toxicity, cell-based, Vero C1008; conditions: chlorocebus sabaeus
Vero C1008 = assay: Cytotoxicity against African green monkey Vero E6 cells assessed as cell viability at 10 uM incubated for 48 hrs by CellTiter96 assay; assay type: toxicity, cell-based; conditions: chlorocebus sabaeus, vero c1008, 48 h

SMILES | inhibition at 50 µM (SARS-CoV-2 [1]) [%] | viability at 48 h, 50 µM [2] [%] | inhibition [3] [%] | IC50 [4] [µM] | inhibition at 10 µM (SARS-CoV-2 [5]) [%] | EC50 (SARS-CoV-2 [6]) [µM] | CC50 at 48 h [7] [µM] | Activity (Vero C1008)
O=C(Nc1cccc(I)c1)c1cccc(COc2ccc(Nc3ncnc4ccccc34)cc2Cl)c1 | 99 | 21 | 55.7 | – | – | – | – | –
O=C(Nc1ccccc1Cl)c1ccc(COc2ccc(Nc3ncnc4ccccc34)cc2Cl)cc1 | 57.7 | 3.64 | 30.8 | – | – | – | – | –
COc1cccc(NC(=O)c2ccc(COc3ccc(Nc4ncnc5ccccc45)cc3Cl)cc2)c1 | 82.2 | 22.6 | 49.3 | – | – | – | – | –
O=C(Nc1ccccc1)c1cccc(COc2ccc(Nc3ncnc4ccccc34)cc2Cl)c1 | 68.4 | 1 | 98 | 3.75 | – | – | – | –
O=C(Nc1cccc(C(F)(F)F)c1)c1cccc(COc2ccc(Nc3ncnc4ccccc34)cc2Cl)c1 | 99 | 26.6 | – | – | – | – | – | –
O=C(Nc1ccccc1)c1ccc(COc2ccc(Nc3ncnc4ccccc34)cc2Cl)cc1 | 0 | 8.05 | 66.3 | – | – | – | – | –
O=C(Nc1ccc(Cl)cc1)c1cccc(COc2ccc(Nc3ncnc4ccccc34)cc2Cl)c1 | 24.9 | 9.39 | 69.5 | – | – | – | – | –
Fc1cccc(COc2ccc(Nc3ncnc4ccccc34)cc2Cl)c1 | 43.7 | 44.8 | 82.6 | 3.18 | – | – | – | –
COc1cccc(NC(=O)c2cccc(COc3ccc(Nc4ncnc5ccccc45)cc3Cl)c2)c1 | 92.7 | 8.66 | – | – | – | – | – | –
O=C(Nc1cccc(I)c1)c1ccc(COc2ccc(Nc3ncnc4ccccc34)cc2Cl)cc1 | 94.5 | 0 | 87.7 | 9.12 | – | – | – | –
CS(=O)(=O)CCNCc1ccc(-c2ccc3ncnc(Nc4ccc(OCc5cccc(F)c5)c(Cl)c4)c3c2)o1 [LAPATINIB] | 92.7 | 71.1 | 97.1 | – | 58.8 | – | – | –
O=C(Nc1ccccc1F)c1cccc(COc2ccc(Nc3ncnc4ccccc34)cc2Cl)c1 | 96.9 | 13.6 | 68.6 | – | 82.2 | 1.1 | > 100 | –
O=C(Nc1ccc(Cl)cc1)c1ccc(COc2ccc(Nc3ncnc4ccccc34)cc2Cl)cc1 | 82.2 | 0 | 73.2 | 4.83 | – | – | – | –
O=C(Nc1ccccc1Cl)c1cccc(COc2ccc(Nc3ncnc4ccccc34)cc2Cl)c1 | 95.9 | 38 | 53 | – | – | – | – | –
O=C(Nc1ccccc1F)c1ccc(COc2ccc(Nc3ncnc4ccccc34)cc2Cl)cc1 | 86.7 | 0 | 66.4 | – | – | – | – | –
Clc1cc(Nc2ncnc3ccccc23)ccc1OCc1cccc(Br)c1 | 68.4 | 28.1 | 82 | 4.38 | – | – | – | –
Clc1cc(Nc2ncnc3ccccc23)ccc1OCc1ccccc1 | 25.1 | 49.3 | 74.6 | 3.97 | – | – | – | –
O=C(Nc1cccc(C(F)(F)F)c1)c1ccc(COc2ccc(Nc3ncnc4ccccc34)cc2Cl)cc1 | 90 | 17.3 | 55.7 | – | – | – | – | –
CCC(CC)COC(=O)[C@H](C)N[P@](=O)(OC[C@H]1OC(C#N)(c2ccc3c(N)ncnn23)[C@H](O)[C@@H]1O)Oc1ccccc1 (some centres undefined) | – | – | – | – | 99.9 | – | – | Non-toxic
